In patent EP1633374B1, “COMPOSITION CONSISTING OF ALKANE DICARBOXYLIC ACIDS AND A PHARMACEUTICALLY ACTIVE INGREDIENT” (Intendis GmbH, priority 2003, dated 2004):
Entries after “also recorded” stand apart in the source; their conditions may differ.

Tested on: durch Crotonöl entzündete Maushaut
Experiment: Croton oil-induced inflammation of the mouse ear (irritant contact dermatitis model), leukocyte infiltration of the skin
Type: in vivo, Maus
Settings: for Inhibition [%] der Hautinfiltration * von Granulozyten & Monozyten (Myelo-Peroxidaseaktivität) / Inhibition [%] der Hautinfiltration * von Neutrophilen Elastaseaktivität: Crotonöl challenge, mouse ear skin, topical treatment in Ethanol/Isopropylmyristat, inhibition vs Crotonöl + Vehikel (0 %), 100 % = Vehikel/Vehikel, significance given (n.s. or p<0.05); for therapeutische Effekte im Vergleich zum Vehikel: inflammation model, in Ethanol/Isopropylmyristat, Peroxidase- and Elastase-Aktivität in der Haut, result in words
Excerpt: Die Induktion einer entzündlichen Reaktion (irritative Kontaktdermatitis) ist ein weit verbreitetes Modell zur pharmakologischen Evaluierung des anti - inflammatorischen Potentials von topisch oder systemisch applizierten Testsubstanzen. (Trancik and Lowe (1985) Evaluation of topical nonsteroidal anti - inflammatory agents, Models in Dermatology, H. Maibach and N.J. Lowe, Basel Karger: 35 - 42) Es hat sich unter anderem bei der Testung von nicht - steroidalen Antiphlogistika sowie bei Glukokortikosteroiden bewährt und gilt als der am besten reproduzierbare in vivo Testversuch für die Evaluierung topischer anti - inflammatorischer Substanzen (Lorenzetti (1975) Animal to Clinical Correlation of Topical Anti - Inflammatory Efficacy, Animal models in dermatology. H. Maibach, Basel Karger: 212 - 224)
Die Induktion einer entzündlichen Reaktion (irritative Kontaktdermatitis) ist ein weit verbreitetes Modell zur pharmakologischen Evaluierung des anti - inflammatorischen Potentials von topisch oder systemisch applizierten Testsubstanzen (Trancik and Lowe (1985) Evaluation of topical nonsteroidal anti - inflammatory agents, Models in Dermatology, H. Maibach and N.J. Lowe. Basel, Karger: 35 - 42). Es hat sich u.a. bei der Testung von nicht - steroidalen Antiphlogistika sowie bei Glukokortikosteroiden bewährt und gilt als der am besten reproduzierbare in vivo Versuch für die Evaluierung topischer anti - inflammatorischer Substanzen (Lorenzetti (1975) Animal to Clinical correlation of Topical Anti - inflammatory Efficacy. Animal models in dermatology. H. Maibach. Basel Karger: 212 - 225).
Die Applikation des Phorbolesters Crotonöl auf Mäuseohren führt zu einer akuten, entzündlichen Reaktion mit Ödem und Einwanderung von vorwiegend polymorphkernigen Granulozyten, die binnen 24h ihr Maximum erreicht. Testsubstanzen können hierbei entweder präventiv (d.h. vor Applikation des entzündlichen Reizes) oder simultan mit Crotonöl appliziert werden. Die Crotonöl - induzierte Entzündung am Mäuseohr ist nicht nur ein Modell der irritativen und/oder allergischen Kontaktdermatitis, sondern auch anderer Hauterkrankungen, die mit einer starken Entzündung und Einwanderung von Granulozyten verbunden sind. Hierzu zählen die Psoriasis, atopische Dermatitis, Akne vulgaris und das entzündliche Stadium der Rosacea.
Erstaunlicher Weise wurde gefunden, dass eine Kombinationstherapie von Metronidazol (0.75%) und Azelainsäure (20%) in Ethanol/Isopropylmyristat im Vergleich zum Vehikel signifikant therapeutisch effektiv waren, wohingegen die beiden Einzelsubstanzen Metronidazol (0.75%) bzw. […] Die Wirksamkeit beinhaltete u.a. die Einwanderung von Leukozyten gemessen als Peroxidase-Aktivität in der Haut sowie die Einwanderung von neutrophilen Granulozyten gemessen als Elastase-Aktivität in der Haut (Tabelle 1).
Die Leukozyteninfiltration in die durch Crotonöl entzündete Maushaut wird durch die kombinierte Behandlung mit Azelainsäure und Metronidazol im Vergleich zu Vehikelbehandlung signifikant inhibiert, wohingegen die einzelnen Wirkstoffe nicht so effektiv waren.

| Compound | Inhibition [%] der Hautinfiltration * von Granulozyten & Monozyten (Myelo-Peroxidaseaktivität) | Inhibition [%] der Hautinfiltration * von Neutrophilen Elastaseaktivität | therapeutische Effekte im Vergleich zum Vehikel |
| --- | --- | --- | --- |
| O=C(O)CCCCCCCC(=O)O [Azelainsäure (20%), Azelainsäure] | 21 (n.s.) * % | 11 (n.s.) * % | keine so hohen, therapeutischen Effekte; also recorded: keine so hohe, therapeutische Effekte |
| C[C@H]1C[C@@H]2[C@H]([C@@H](O)C[C@@]3(C)[C@H]2CC[C@]3(O)C(=O)CO)[C@@]2(C)C=CC(=O)C=C12 [Methylprednisolon] | 90 (p<0.05) ^* % | 95 (p<0.05) ^* % | – |
| Cc1ncc([N+](=O)[O-])n1CCO [Metronidazol (0.75%), 1-(2-hydroxyethyl)-2-methyl-5-nitroimidazol] | 9 (n.s.) * % | 18 (n.s.) * % | keine so hohen, therapeutischen Effekte; also recorded: keine so hohe, therapeutische Effekte |
